A word on the pIC50: it is the IC50 on a negative log10 scale, so that one unit is a factor of ten. Usually AUC stands for concentration integrated over time.

Data set [1] addresses T1, Human BACE1(1-460):Fc (Homo sapiens, UniProt P56817).
T1 construct: made in house; host or cells: HEK293 cells, transient transfection; purified from conditioned media by Protein A
Put plainly: BACE1 FRET Assay. In kind it is biochemical. The note with it: purified recombinant huBACE1:Fc, FRET substrate based on APP; mean ± standard deviation of the mean, n=12. The protocol:
(§1) To assess selectivity of BACE1 over BACE2, the test compound is evaluated in FRET assays using specific substrates for BACE1 and BACE2 as described below. For in vitro enzymatic and cellular assays, the test compound is prepared in DMSO to make up a 10 mM stock solution. The stock solution is serially diluted in DMSO to obtain a ten-point dilution curve with final compound concentrations ranging from 10 μM to 0.05 nM in a 96-well round-bottom plate before conducting the in vitro enzymatic and whole cell assays.
(§2) Human BACE1 (accession number: AF190725) and human BACE2 (accession number: AF 204944) are cloned from total brain cDNA by RT-PCR. The nucleotide sequences corresponding to amino acid sequences #1 to 460 are inserted into the cDNA encoding human IgG1 (Fc) polypeptide (Vassar et al., Science, 286, 735-742 (1999)). […]
(§3) Conditioned media of HEK293 cells transiently transfected with huBACE1:Fc or huBACE2:Fc cDNA are collected. […] The purity of the final product is assessed by electrophoresis in 4-20% Tris-Glycine SDS-PAGE. […]
Serial dilutions of the test compound are prepared as described above. […] The RFU of the mixture at time 0 is recorded at excitation wavelength 355 nm and emission wavelength 460 nm, after brief mixing on a plate shaker. […] The RFU at the end of incubation is recorded with the same excitation and emission settings used at time 0. […]

In data set [2] the target is T2, human BACE2 (1-460):Fc (Homo sapiens, UniProt Q9Y5Z0).
T2 construct: made in house; host or cells: HEK293 cells, transient transfection; purified from conditioned media by Protein A
T2 sequence (Q9Y5Z0 21-460): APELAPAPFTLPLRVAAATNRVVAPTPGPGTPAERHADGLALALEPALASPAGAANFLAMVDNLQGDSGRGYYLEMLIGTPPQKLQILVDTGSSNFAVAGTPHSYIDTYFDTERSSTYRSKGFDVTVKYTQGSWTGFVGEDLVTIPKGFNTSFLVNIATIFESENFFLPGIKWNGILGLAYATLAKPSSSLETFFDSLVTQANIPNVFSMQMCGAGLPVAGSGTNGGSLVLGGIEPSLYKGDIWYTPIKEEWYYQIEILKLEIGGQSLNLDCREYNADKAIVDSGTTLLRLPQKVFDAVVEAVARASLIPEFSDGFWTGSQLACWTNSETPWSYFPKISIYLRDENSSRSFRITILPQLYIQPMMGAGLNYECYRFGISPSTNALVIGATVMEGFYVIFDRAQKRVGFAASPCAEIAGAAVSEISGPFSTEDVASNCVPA
Put plainly: BACE2 TMEM27 FRET Assay. In kind it is biochemical. Here is the method:
as §1, §2, §3
Serial dilutions of test compound are prepared as described above. […] The RFU of the mixture at time 0 is recorded at excitation wavelength 430 nm and emission wavelength 535 nm. […] The RFU at the end of incubation is recorded with the same excitation and emission settings used at time 0. […]

Data set [3] concerns the target T3, BACE1 activity in SH-SY5YAPP695Wt cells (Homo sapiens, UniProt P56817).
T3 construct: endogenous in cells; host or cells: SH-SY5Y (ATCC CRL2266) stably expressing human APP695Wt
Kind of data set: SH-SY5YAPP695Wt Whole Cell Assay (Abeta ELISA). In kind it is cell-based. The note with it: 24 hours incubation, conditioned media, n=4. Here is the method: as §1
The routine whole cell assay for the measurement of inhibition of BACE1 activity utilizes the human neuroblastoma cell line SH-SY5Y (ATCC Accession No. CRL2266) stably expressing a human APP695Wt cDNA. Cells are routinely used up to passage number 6 and then discarded.
SH-SY5YAPP695Wt cells are plated in 96 well tissue culture plates at 5.0×10^4 cells/well in 200 μL culture media (50% MEM/EBSS and Ham's F12, 1× each sodium pyruvate, non-essential amino acids and NaHCO3 containing 10% FBS). The following day, media is removed from the cells, fresh media added then incubated at 37° C. for 24 hours in the presence/absence of test compound at the desired concentration range.
At the end of the incubation, conditioned media are analyzed for evidence of beta-secretase activity by analysis of Abeta peptides 1-40 and 1-42 by specific sandwich ELISAs. […]
(In general: In an ELISA, binding on a coated surface is turned into a signal by an enzyme label.)

Data set [4] relates to beta-secretase. Put plainly: In vivo inhibition of beta-secretase, cannulated beagle dog model (Abeta 1-x ELISA). The conditions noted are these: male beagle dogs, 1.0 mg/kg p.o. The protocol: (§4) Several animal models, including mouse, guinea pig, dog, and monkey, may be used to screen for inhibition of beta-secretase activity in vivo following compound treatment. Herein, we conduct central pharmacology studies in a cannulated beagle dog model. In this model, a cohort of male beagle dogs are implanted with a cannula in the lumbar spine region and threaded up towards the cervical spine. This model allows multiple CSF collections throughout a single 48-72 hour study period through a subcutaneous lumbar port attached to the spinal catheter. As long as the cannula remains patent, additional CSF pharmacology studies can be conducted within the same cohort of dogs. Blood samples are processed to obtain plasma, and then plasma and CSF samples are aliquoted to allow determination of test compound and Abeta CSF concentrations.
In this study, six male beagle dogs are dosed p.o. with 1.0 mg/kg Example 1 in a 0.5 M, phosphate buffer (pH=2.0) formulation and blood (0.5, 1, 2, 3, 6, 9, 12, 24, and 48 hours) and CSF (3, 6, 9, 24, and 48 hours) are collected. Plasma and CSF compound concentrations are determined by LC/MS/MS methods. Plasma and CSF are also analyzed for Abeta 1-x. “Abeta 1-x” as used herein refers to the sum of Abeta species that begin with residue 1 and end with a C-terminus greater than residue 28. This detects the majority of Abeta species and is often called “total Abeta”. Total Abeta peptides (Abeta 1-x) levels are measured by a sandwich ELISA, using monoclonal 266 as a capture antibody and biotinylated 3D6 as reporting antibody. (See May, et al., Journal of Neuroscience, 31, 16507-16516 (2011)).

The nature of data set [5]: Plasma and CSF compound exposure in cannulated beagle dogs (LC/MS/MS). In kind it is in vivo. The conditions noted are these: dog, po, male beagle dogs, 1.0 mg/kg p.o. Here is the method: as §4
In this study, six male beagle dogs are dosed p.o. with 1.0 mg/kg Example 1 in a 0.5 M, phosphate buffer (pH=2.0) formulation and blood (0.5, 1, 2, 3, 6, 9, 12, 24, and 48 hours) and CSF (3, 6, 9, 24, and 48 hours) are collected. Plasma and CSF compound concentrations are determined by LC/MS/MS methods. Plasma and CSF are also analyzed for Abeta 1-x. […] Total Abeta peptides (Abeta 1-x) levels are measured by a sandwich ELISA, using monoclonal 266 as a capture antibody and biotinylated 3D6 as reporting antibody. […]

pIC50: −log10 of the molar value. Like-named read-outs stand apart in the source and are kept apart here.

T3 sequence (P56817 46-501): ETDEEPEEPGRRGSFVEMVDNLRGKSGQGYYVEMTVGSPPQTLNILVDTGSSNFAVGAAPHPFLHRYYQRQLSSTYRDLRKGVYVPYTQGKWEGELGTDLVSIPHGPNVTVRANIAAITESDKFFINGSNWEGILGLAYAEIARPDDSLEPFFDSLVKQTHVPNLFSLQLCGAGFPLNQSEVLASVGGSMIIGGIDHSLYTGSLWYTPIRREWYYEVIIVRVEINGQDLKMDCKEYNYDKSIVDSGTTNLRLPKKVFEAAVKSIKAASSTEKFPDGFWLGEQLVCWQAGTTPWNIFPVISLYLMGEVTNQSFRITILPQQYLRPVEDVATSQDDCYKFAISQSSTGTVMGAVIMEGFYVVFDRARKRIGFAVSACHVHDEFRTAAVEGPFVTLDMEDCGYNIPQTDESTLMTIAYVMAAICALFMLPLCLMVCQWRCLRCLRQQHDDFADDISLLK
T1 sequence (P56817 22-460): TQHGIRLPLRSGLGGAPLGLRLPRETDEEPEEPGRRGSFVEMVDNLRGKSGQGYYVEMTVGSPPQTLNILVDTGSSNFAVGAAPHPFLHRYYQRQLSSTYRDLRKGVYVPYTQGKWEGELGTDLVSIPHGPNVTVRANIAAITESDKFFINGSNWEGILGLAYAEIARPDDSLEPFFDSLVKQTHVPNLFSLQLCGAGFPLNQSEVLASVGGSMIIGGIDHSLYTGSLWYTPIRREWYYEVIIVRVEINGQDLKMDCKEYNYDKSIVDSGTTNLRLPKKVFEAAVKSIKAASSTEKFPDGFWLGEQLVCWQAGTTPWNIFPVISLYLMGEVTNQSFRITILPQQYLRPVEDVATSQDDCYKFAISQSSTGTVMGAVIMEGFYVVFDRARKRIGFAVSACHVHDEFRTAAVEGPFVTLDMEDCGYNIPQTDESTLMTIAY

As to `CC(F)(F)[C@H]1OC[C@]2(c3cc(NC(=O)c4ccc(C(F)(F)F)cn4)ccc3F)N=C(N)OC[C@H]12` [Example 1, N-[3-[(4aR,5S,7aS)-2-Amino-5-(1,1-difluoroethyl)-4,4a,5,7-tetrahydrofuro[3,4-d][1,3]oxazin-7a-yl]-4-fluoro-phenyl]-5-(trifluoromethyl)pyridine-2-carboxamide], the pIC50 in data set [1] was 7.92; in data set [2] (huBACE2:Fc, TMEM27 LucY FRET substrate, mean ± standard deviation of the mean, n=6), 6.22; in data set [3] (read-out: IC50 for SH-SY5YAPP695Wt A-beta (1-40) ELISA), 8.99; in data set [3] (read-out: IC50 for SH-SY5YAPP695Wt A-beta (1-42) ELISA), 8.89. Also, the “BACE1 selectivity over BACE2 (BACE2 IC50 / BACE1 IC50)” value in data set [2] (selectivity for BACE1 over BACE2) is on record as “approximately 50 fold”. Further, the entries for the “reduction of CSF Abeta 1-x levels relative to baseline” value in data set [4] (24 hours) and in data set [4] (48 hours) were “approximately 65%” and approximately 55%, respectively. Also, the “reduction in plasma levels of Abeta 1-x at nadir” value in data set [4] (48 hour post-dosing period) was “up to 80%”. Also, the Kp in data set [5] (CSF / free plasma, free fraction by equilibrium dialysis, read-out: ratio of CSF AUC to free plasma AUC) is 0.17. Also, the AUC in data set [5] (plasma, read-out: total plasma AUC exposure) turned out to be 7.96 µM·h.

Values taken from US20190106434A1, “N-[3-[2-AMINO-5-(1,1-DIFLUOROETHYL)-4,4A,5,7-TETRAHYDROFURO[3,4-D][1,3]OXAZIN-7A-YL]-4-FLUORO-PHENYL-5-(TRIFLUOROMETHYL)PYRIDINE-2-CARBOXAMIDE AND ITS (4AR,5S,7AS) ISOMER AS A SELECTIVE BACE1 INHIBITOR FOR TREATING E.G. ALZHEIMER'S DISEASE” (Eli Lilly and Company, priority 2016, published 2019).
